Test results: US4748254A, “Mixed carboxylato platinum (II) complexes” (priority 1984, dated 1988)
Values belong to the compound of their own block, whether it stands above or below them.

Key:
[1] = test system: hepatoma 22a; assay: Increase of lifespan of mice with grafted hepatoma 22a; format: in vivo
Protocol: (§1) As the criteria for the antitumor activity for leukosises and ascytic forms of tumors the increase of the lifespan of treated animals (ILS, %)
(§2) T--average lifespan of treated animals;
(§3) C--average lifespan of control animals;
(§4) The experiments were carried out on line mice and their hybrides of the first generation. […]

[2] = test system: mammal adenocarcinoma Ca 755; assay: Tumor growth inhibition of mammal adenocarcinoma Ca 755; format: in vivo, mice
Protocol: and for a solid tumor--tumor growth inhibition (TGI, %)
O--volume of tumors in the group of treated animals;
K--volume of tumors in the control group were employed.
as §4

[3] = test system: plasmacytoma MOPC-406; assay: Increase of lifespan of mice with plasmacytoma MOPC-406; format: in vivo; details: for curing of animals with plasmocytoma MOPC-406: in words
Protocol: as §1, §2, §3, §4

[4] = test system: tumors; details: in words; cited from earlier work
[5] = test system: plasmacytoma of mice ADJ/PC6A; details: cited from earlier work
[6] = test system: lymphoid leukosis L-1210; assay: Increase of lifespan of mice with lymphoid leukosis L-1210; format: in vivo; details: 3 mg/kg i.p. in 0.9% NaCl, days of treatment 1-5
[7] = test system: hemocytoblastosis La; assay: Increase of lifespan of mice with hemocytoblastosis La; format: in vivo
Protocol: as §1, §2, §3, §4

[8] = test system: lymphoid leukosis L-1210; assay: Increase of lifespan of mice with lymphoid leukosis L-1210; format: in vivo
Protocol: as §1, §2, §3
The experiments were carried out on line mice and their hybrides of the first generation. […] The compounds were administered to animals intraperitoneally in a 5% solution of glucose once or daily over 5 days within the time limits adopted in experimental studies of corresponding tumors.

[9] = Storage stability and hygroscopicity; format: physicochemical; details: in words
[10] = cited from earlier work
[11] = cited from earlier work; remark: listed apart in the source
[12] = test system: graft strains of tumors and leukoses of mice; assay: Antitumor activity, overall statement; format: in vivo; details: in words
Protocol: The antitumor activity of the compounds according to the present invention has been studied on a number of strains of grafted solid tumors and leukosises of mice: plasmacytoma MOPC-406, lymphoid leukosis L-1210, hemocytoblastosis La, hepatoma 22a, mammal adenocarcinoma Ca 755.
The experiments were carried out on line mice and their hybrides of the first generation. […] The compounds were administered to animals intraperitoneally in a 5% solution of glucose once or daily over 5 days within the time limits adopted in experimental studies of corresponding tumors. […]

[13] = 5 mg/kg i.p. in 0.9% NaCl, day 3
[14] = 2 mg/kg i.p. in 0.9% NaCl, days of treatment 2-5
[15] = 15-25 mg/kg i.p., days of treatment 2-6
[16] = 30 mg/kg i.p., days of treatment 2-6
[17] = 20-40 mg/kg i.p., days of treatment 2-6
[18] = 20-25 mg/kg i.p., days of treatment 2-6
[19] = 20 mg/kg i.p., days of treatment 7-11

Compound: N.N.[Cl][Pt][Cl] [DDP, cis-dichlorodiammineplatinum(II), reference compound]
Increase of lifespan, %, Hepatoma 22a [1, 13]: 120%
number of cured animals / animals employed, Hepatoma 22a [1, 13]: 0/6
curing of animals with hepatoma 22a ([1]; in words): no curing of animals
Tumor growth inhibition, %, Ca-755 ([2]; 8 mg/kg i.p. in 0.9% NaCl, day 2): 95%
Increase of lifespan, %, MOPC-406 [3, 14]: 140%
number of cured animals / animals employed, MOPC-406 [3, 14]: 0/6
curing of animals with plasmocytoma MOPC-406 [3]: no curing of animals
antitumor activity [4]: high antitumor activity
spectrum of action on diverse tumors [4]: remarkably wide spectrum of action on diverse tumors
ID90 (dose inhibiting growth of tumors by 90%) ([5]; plasmacytoma ADJ/PC6A, mice): 1.6 mg/kg
Increase of lifespan, %, L-1210 [6]: 116%
Increase of lifespan, %, La ([7]; 8 mg/kg i.p. in 0.9% NaCl, day 1): 200%

Compound: N.NC1CC1.O=C([O-])CC(=O)[O-].[Pt+2] [Example 1, malonatoammine(cyclopropylamine)platinum(II)]
Increase of lifespan, %, Hepatoma 22a [1, 15]: 85%
number of cured animals / animals employed, Hepatoma 22a [1, 15]: 0/6
Tumor growth inhibition, %, Ca-755 [2, 15]: 89%
Increase of lifespan, %, MOPC-406 ([3]; 60 mg/kg i.p., day 7): 150%
number of cured animals / animals employed, MOPC-406 ([3]; 60 mg/kg i.p., day 7): 1/6
Increase of lifespan, %, MOPC-406 [3, 15]: 268%
number of cured animals / animals employed, MOPC-406 [3, 15]: 2/6
Increase of lifespan, %, MOPC-406 ([3]; 60-70 mg/kg i.p., day 2): 177%
number of cured animals / animals employed, MOPC-406 ([3]; 60-70 mg/kg i.p., day 2): 1/6
curing of animals with plasmocytoma MOPC-406 [3]: ensure curing of a certain number of animals (up to 100%)
Increase of lifespan, %, L-1210 [8, 15]: 39%
Increase of lifespan, %, L-1210 ([8]; 60-70 mg/kg i.p., day 2): 48%
Increase of lifespan, %, La [7, 15]: 29%

Compound: N.NC1CCC1.O=C1[O][Pt][O]C(=O)C1O [Example 3, (hydroxymalonato)ammine(cyclobutylamine)platinum(II)]
Tumor growth inhibition, %, Ca-755 ([2]; 20 mg/kg i.p., days of treatment 2-6): 70%
Increase of lifespan, %, L-1210 ([8]; 25 mg/kg i.p., days of treatment 2-6): 100%
Increase of lifespan, %, L-1210 ([8]; 60 mg/kg i.p., day 2): 71%

Compound: [NH2][Pt]1([NH]C2CCCC2)[O]C(=O)CC(=O)[O]1 [Example 6, malonatoammine(cyclopentylamine)platinum(II)]
Increase of lifespan, %, Hepatoma 22a [1, 15]: 140%
number of cured animals / animals employed, Hepatoma 22a [1, 15]: 2/6
curing of animals with hepatoma 22a ([1]; in words): cure a portion of animals
Tumor growth inhibition, %, Ca-755 [2, 15]: 76%
Increase of lifespan, %, MOPC-406 ([3]; 50 mg/kg i.p., day 7): 329%
number of cured animals / animals employed, MOPC-406 ([3]; 50 mg/kg i.p., day 7): 3/6
Increase of lifespan, %, MOPC-406 [3, 15]: 286%
number of cured animals / animals employed, MOPC-406 [3, 15]: 3/6
Increase of lifespan, %, MOPC-406 ([3]; 40-60 mg/kg i.p., day 2): 300%
number of cured animals / animals employed, MOPC-406 ([3]; 40-60 mg/kg i.p., day 2): 5/6
curing of animals with plasmocytoma MOPC-406 [3]: ensure curing of a certain number of animals (up to 100%)
Increase of lifespan, %, L-1210 [8, 15]: 36%
Increase of lifespan, %, L-1210 ([8]; 40-60 mg/kg i.p., day 2): 45%
hygroscopicity [9]: very hygroscopic
Increase of lifespan, %, La [7, 15]: 21%

Compound: [NH2][Pt]1([NH]C2CCCCC2)[O]C(=O)CCC(=O)[O]1 [Example 15, succinatoammine(cyclohexylamine)platinum(II)]
Tumor growth inhibition, %, Ca-755 [2, 16]: 72%
Increase of lifespan, %, L-1210 [8, 16]: 108%
Increase of lifespan, %, L-1210 ([8]; 150 mg/kg i.p., day 2): 120%

Compound: N.NCC1CCCO1.O.O=C1C[C@H](O)C(=O)[O][Pt][O]1 [Example 21, S(-)-malatoammine(tetrahydrofurfurylamine)platinum(II)]
Increase of lifespan, %, Hepatoma 22a [1, 17]: 340%
number of cured animals / animals employed, Hepatoma 22a [1, 17]: 2/6
curing of animals with hepatoma 22a ([1]; in words): cure a portion of animals
Tumor growth inhibition, %, Ca-755 [2, 17]: 95%
Increase of lifespan, %, MOPC-406 [3, 17]: 280%
number of cured animals / animals employed, MOPC-406 [3, 17]: 3/6
curing of animals with plasmocytoma MOPC-406 [3]: ensure curing of a certain number of animals (up to 100%)
Increase of lifespan, %, L-1210 [8, 17]: 120%

Compound: [Cl][Pt-2]([Cl])([NH2+]C1CCCC1)[NH2+]C1CCCC1 [cis-[PtCl2 (cyclo-C5 H9 NH2)2]]
solubility in water ([10]; prior art compound, in words): substantially insoluble in water
therapeutic response or side effect ([11]; fine suspensions in sesame oil or aqueous solloids stabilized by polyvinylpyrrolidone): no therapeutic response or a side effect
local irritation ([11]; in vivo): local irritation upon administration of an oily suspension
retention at the spot of the injection ([11]; in vivo): substantially remains at the spot of the injection
ID90 (dose inhibiting growth of tumors by 90%) ([5]; plasmacytoma ADJ/PC6A, mice): 2.4 mg/kg
therapeutical index TI=LD50/ID90 ([5]; plasmacytoma ADJ/PC6A, mice): 200

Compound: N.NC1CCCC1.[Cl][Pt][Cl] [cis-[PtCl2 NH3 (cyclo-C5 H9 NH2)]]
solubility in 0.9% NaCl ([10]; 0.9% NaCl): about 1 mg/ml
advantage over parent compounds with identical ligands [4]: absence of advantages of this mixed complex as compared to the parent compounds with identical ligands
toxicity compared with DDP ([5]; in words, versus DDP): slightly more toxic than DDP
LD50 ([5]; mice, plasmacytoma ADJ/PC6A tests): 11.0 mg/kg
ID90 (dose inhibiting growth of tumors by 90%) ([5]; plasmacytoma ADJ/PC6A, mice): 0.5 mg/kg
90% tumor growth inhibiting dose, times less than that of DDP ([5]; plasmacytoma ADJ/PC6A, versus DDP): 3 times
90% tumor growth inhibiting dose, times less than that of cis-[PtCl2 (cyclo-C5 H9 NH2)2 ] ([5]; plasmacytoma ADJ/PC6A, versus cis-[PtCl2 (cyclo-C5 H9 NH2)2 ]): ~5 times

Compound: NC1CCCCC1.NC1CCCCC1.[Cl][Pt][Cl] [complex with cyclohexylamine]
therapeutical index TI=LD50/ID90 ([5]; plasmacytoma ADJ/PC6A, mice): above 267

Compound: RS-malatoammine(cyclopentylamine)platinum(II) [Example 5]
Increase of lifespan, %, Hepatoma 22a [1, 18]: 322%
number of cured animals / animals employed, Hepatoma 22a [1, 18]: 2/6
curing of animals with hepatoma 22a ([1]; in words): cure a portion of animals
Tumor growth inhibition, %, Ca-755 [2, 18]: 95%
Increase of lifespan, %, MOPC-406 [3, 18]: 350%
number of cured animals / animals employed, MOPC-406 [3, 18]: 4/6
curing of animals with plasmocytoma MOPC-406 [3]: ensure curing of a certain number of animals (up to 100%)
Increase of lifespan, %, L-1210 [8, 18]: 156%

hygroscopicity [9]: hydroscopic
Compound: S(-)malatoammine(cyclopentylamine)platinum(II) [Example 4]
Increase of lifespan, %, Hepatoma 22a [1, 15]: 225%
number of cured animals / animals employed, Hepatoma 22a [1, 15]: 4/6
curing of animals with hepatoma 22a ([1]; in words): cure a portion of animals
curing of animals with hepatoma 22a ([1]; optimal doses): up to 66%
Tumor growth inhibition, %, Ca-755 [2, 15]: 96%
Increase of lifespan, %, MOPC-406 [3, 19]: 356%
number of cured animals / animals employed, MOPC-406 [3, 19]: 3/6
Increase of lifespan, %, MOPC-406 [3, 15]: 327%
number of cured animals / animals employed, MOPC-406 [3, 15]: 6/6
Increase of lifespan, %, MOPC-406 ([3]; 60-80 mg/kg i.p., day 2): 310%
number of cured animals / animals employed, MOPC-406 ([3]; 60-80 mg/kg i.p., day 2): 5/6
curing of animals with plasmocytoma MOPC-406 [3]: ensure curing of a certain number of animals (up to 100%)
curing of animals with plasmacytoma MOPC-406 ([3]; optimal doses): up to 100%
Increase of lifespan, %, L-1210 [8, 15]: 195%
Increase of lifespan, %, L-1210 ([8]; 60-80 mg/kg i.p., day 2): 101%
extension of life span of animals with leukemia L-1210 ([8]; optimal doses): 195%
antitumor activity [12]: highest antitumor activity among the compounds according to the present invention
Increase of lifespan, %, La [7, 15]: 113%
lifespan of animals with hemocytoblastosis La ([7]; in words): considerably extends the lifespan
extension of life span of animals with hemocytoblastosis La ([7]; optimal doses): 113%
